Data: patent publication US20120225061A1, “TETRASUBSTITUTED CYCLOHEXYL COMPOUNDS AS KINASE INHIBITORS” (priority 2011, published 2012)

Experiments:
Pim2 kinase = Pim2 kinase (Homo sapiens, UniProt Q9P1W9); assay: Pim2 AlphaScreen assay (high ATP)
Pim3 kinase = Pim3 kinase (Homo sapiens, UniProt Q86V86); assay: Pim3 AlphaScreen assay (high ATP)
[1] = tested on: KMS11 (human myeloma cell line); assay: Cell proliferation assay (CellTiter-Glo) in KMS11 cells; assay type: cell-based; conditions: KMS-11, 72 h, Table 5, 3 days, read-out: KMS11-luc EC50
Experimental: KMS11 (human myeloma cell line), were cultured in IMDM supplemented with 10% FBS, sodium pyruvate and antibiotics. Cells were plated in the same medium at a density of 2000 cells per well into 96 well tissue culture plates, with outside wells vacant, on the day of assay.
Test compounds supplied in DMSO were diluted into DMSO at 500 times the desired final concentrations before dilution into culture media to 2 times final concentrations.
After 3 days plates were equilibrated to room temperature and equal volume of CellTiter-Glow Reagent (Promega) was added to the culture wells. The plates were agitated briefly and luminescent signal was measured with luminometer.

Pim1 kinase = Pim1 kinase (Homo sapiens, UniProt P11309); assay: Pim1 AlphaScreen assay (high ATP)
Pim1 kinase, sequence (P11309 whole entry): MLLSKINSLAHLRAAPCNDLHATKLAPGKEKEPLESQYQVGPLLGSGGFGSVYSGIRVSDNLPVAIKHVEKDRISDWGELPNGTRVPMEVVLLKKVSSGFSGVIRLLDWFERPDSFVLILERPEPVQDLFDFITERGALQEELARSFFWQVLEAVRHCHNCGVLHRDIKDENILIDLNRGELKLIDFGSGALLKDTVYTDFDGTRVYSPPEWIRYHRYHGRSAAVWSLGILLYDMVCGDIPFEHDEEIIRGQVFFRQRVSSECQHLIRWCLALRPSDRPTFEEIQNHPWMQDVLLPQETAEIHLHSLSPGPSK
Experimental: The activity of Pim 1, Pim 2, & Pim 3 is measured using a homogeneous bead based system quantifying the amount of phosphorylated peptide substrate resulting from kinase-catalyzed phosphoryl transfer to a peptide substrate. Compounds to be tested are dissolved in 100% DMSO and directly distributed to a white 384-well plate at 0.25 μl per well. […] This is followed by the addition of 5 μl/well of Pim 1, Pim 2 or Pim 3 kinase in assay buffer (concentrations described below). Final assay concentrations (described below) are in 2.5% DMSO. The reactions are performed for ˜2 hours, then stopped by the addition of 10 μl of 0.75 μg/ml anti-phospho Ser/Thr antibody (Cell Signaling), 10 μg/ml Protein A AlphaScreen beads (Perkin Elmer), and 10 μg/ml streptavidin coated AlphaScreen beads in stop/detection buffer (50 mM EDTA, 95 mM Tris, pH=7.5, 0.01% Tween-20). The stopped reactions are incubated overnight in the dark. The phosphorylated peptide is detected via an oxygen anion initiated chemiluminescence/fluorescence cascade using the Envision plate reader (Perkin Elmer).

Pim2 kinase, sequence (Q9P1W9 whole entry): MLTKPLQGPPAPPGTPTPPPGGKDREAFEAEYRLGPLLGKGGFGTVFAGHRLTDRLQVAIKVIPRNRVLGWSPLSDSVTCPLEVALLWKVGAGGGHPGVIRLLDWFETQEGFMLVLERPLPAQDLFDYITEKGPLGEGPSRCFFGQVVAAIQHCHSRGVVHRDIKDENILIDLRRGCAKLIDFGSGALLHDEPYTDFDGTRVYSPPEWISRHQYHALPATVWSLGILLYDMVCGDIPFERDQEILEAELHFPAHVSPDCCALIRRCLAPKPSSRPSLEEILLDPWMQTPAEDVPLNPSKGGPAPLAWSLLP

SMILES	IC50 (Pim2 kinase)	IC50 (Pim3 kinase)	EC50 [1]	IC50 (Pim1 kinase)
CC1C[C@@H](c2ccncc2NC(=O)c2ccc(F)c(-c3c(F)cc(Oc4ccncc4)cc3F)n2)C[C@@H](O)[C@]1(C)O (stereo in doubt) [Example 116, 6-(2,6-difluoro-4-(pyridin-4-yloxy)phenyl)-N-(4-((1R,3R,4R,5S)-3,4-dihydroxy-4,5-dimethylcyclohexyl)pyridin-3-yl)-5-fluoropicolinamide]	672 nM	189 nM	> 10000 nM	2.65 nM
C[C@H]1C[C@@H](c2ccncc2NC(=O)c2ccc(F)c(-c3c(F)cc(C4CCS(=O)(=O)CC4)cc3F)n2)C[C@@H](O)C1(C)O (stereo in doubt) [Example 120, N-(4-((1R,3R,4S,5S)-3,4-dihydroxy-4,5-dimethylcyclohexyl)pyridin-3-yl)-6-(4-(1,1-dioxidotetrahydro-2H-thiopyran-4-yl)-2,6-difluorophenyl)-5-fluoropicolinamide]	48.7 nM	31.5 nM	723 nM	0.26 nM
C[C@H]1C[C@@H](c2ccncc2NC(=O)c2ccc(F)c(-c3c(F)cc(CCO)cc3F)n2)C[C@@H](N)[C@]1(C)O [Example 1, N-(4-((1R,3R,4R,5S)-3-amino-4-hydroxy-4,5-dimethylcyclohexyl)pyridin-3-yl)-6-(2,6-difluoro-4-(2-hydroxyethyl)phenyl)-5-fluoropicolinamide]	3.2 nM	–	20 nM	0.07 nM
CCc1cc(F)c(-c2nc(C(=O)Nc3cnccc3[C@H]3C[C@@H](N)[C@](C)(O)[C@@H](C)C3)ccc2F)c(F)c1 [Example 2, N-(4-((1R,3R,4R,5S)-3-amino-4-hydroxy-4,5-dimethylcyclohexyl)pyridin-3-yl)-6-(4-ethyl-2,6-difluorophenyl)-5-fluoropicolinamide]	2.68 nM	1.33 nM	59 nM	0.05 nM
C[C@H]1C[C@@H](c2ccncc2NC(=O)c2ccc(F)c(-c3c(F)ccc(OCCO)c3F)n2)C[C@@H](N)[C@]1(C)O [Example 3, N-(4-((1R,3R,4R,5S)-3-amino-4-hydroxy-4,5-dimethylcyclohexyl)pyridin-3-yl)-6-(2,6-difluoro-3-(2-hydroxyethoxy)phenyl)-5-fluoropicolinamide]	10.6 nM	1.94 nM	126 nM	0.1 nM
COCc1cc(F)c(-c2nc(C(=O)Nc3cnccc3[C@H]3C[C@@H](N)[C@](C)(O)[C@@H](C)C3)ccc2F)c(F)c1 [Example 4, N-(4-((1R,3R,4R,5S)-3-amino-4-hydroxy-4,5-dimethylcyclohexyl)pyridin-3-yl)-6-(2,6-difluoro-4-(methoxymethyl)phenyl)-5-fluoropicolinamide]	4.33 nM	2.43 nM	34 nM	0.09 nM
COCCOc1ccc(F)c(-c2nc(C(=O)Nc3cnccc3[C@H]3C[C@@H](N)[C@](C)(O)[C@@H](C)C3)ccc2F)c1F [Example 6, N-(4-((1R,3R,4R,5S)-3-amino-4-hydroxy-4,5-dimethylcyclohexyl)pyridin-3-yl)-6-(2,6-difluoro-3-(2-methoxyethoxy)phenyl)-5-fluoropicolinamide]	24.9 nM	2.4 nM	202 nM	0.14 nM
CC[C@]1(O)[C@H](N)C[C@H](c2ccncc2NC(=O)c2ccc(F)c(-c3c(F)cccc3F)n2)C[C@@H]1C [Example 11, N-(4-((1R,3R,4R,5S)-3-amino-4-ethyl-4-hydroxy-5-methylcyclohexyl)pyridin-3-yl)-6-(2,6-difluorophenyl)-5-fluoropicolinamide]	8.1 nM	1.43 nM	–	0.13 nM
CC[C@]1(O)[C@H](C)C[C@H](c2ccncc2NC(=O)c2ccc(F)c(-c3c(F)cccc3F)n2)C[C@@H]1N [Example 12, N-(4-((1S,3S,4S,5R)-3-amino-4-ethyl-4-hydroxy-5-methylcyclohexyl)pyridin-3-yl)-6-(2,6-difluorophenyl)-5-fluoropicolinamide]	1440 nM	303 nM	–	26.2 nM
COc1cc(F)c(-c2nc(C(=O)Nc3cnccc3[C@H]3C[C@@H](N)[C@](C)(O)[C@@H](C)C3)ccc2F)c(F)c1 [Example 15, N-(4-((1R,3R,4R,5S)-3-amino-4-hydroxy-4,5-dimethylcyclohexyl)pyridin-3-yl)-6-(2,6-difluoro-4-methoxyphenyl)-5-fluoropicolinamide]	6 nM	1.04 nM	–	0.08 nM
COc1cc(F)c(-c2nc(C(=O)Nc3cnccc3[C@H]3C[C@@H](C)[C@](C)(O)[C@@H](N)C3)ccc2F)c(F)c1 [Example 16, N-(4-((1S,3S,4S,5R)-3-amino-4-hydroxy-4,5-dimethylcyclohexyl)pyridin-3-yl)-6-(2,6-difluoro-4-methoxyphenyl)-5-fluoropicolinamide]	780 nM	73 nM	–	4.25 nM
C[C@@H]1C[C@H](c2ccncc2NC(=O)c2nc(-c3c(F)cccc3F)ccc2N)C[C@H](O)[C@]1(O)CF [Example 17, 3-amino-6-(2,6-difluorophenyl)-N-(4-((1S,3S,4S,5R)-4-(fluoromethyl)-3,4-dihydroxy-5-methylcyclohexyl)pyridin-3-yl) picolinamide]	4650 nM	646 nM	–	28.4 nM
C[C@H]1C[C@@H](c2ccncc2NC(=O)c2nc(-c3c(F)cccc3F)c(F)cc2N)C[C@@H](O)[C@@]1(O)CF [Example 23, 3-amino-6-(2,6-difluorophenyl)-5-fluoro-N-(4-((1R,3R,4R,5S)-4-(fluoromethyl)-3,4-dihydroxy-5-methylcyclohexyl)pyridin-3-yl) picolinamide]	28.6 nM	10.1 nM	–	0.58 nM
C[C@@H]1C[C@H](c2ccncc2NC(=O)c2nc(-c3c(F)cccc3F)c(F)cc2N)C[C@H](O)[C@]1(O)CF [Example 24, 3-amino-6-(2,6-difluorophenyl)-5-fluoro-N-(4-((1S,3S,4S,5R)-4-(fluoromethyl)-3,4-dihydroxy-5-methylcyclohexyl)pyridin-3-yl) picolinamide]	4940 nM	786 nM	–	22.1 nM
C[C@H]1C[C@@H](c2ccncc2NC(=O)c2ccc(F)c(-c3c(F)cc(C4COC4)cc3F)n2)C[C@@H](N)[C@]1(C)O [Example 63, N-(4-((1R,3R,4R,5S)-3-amino-4-hydroxy-4,5-dimethylcyclohexyl)pyridin-3-yl)-6-(2,6-difluoro-4-(oxetan-3-yl)phenyl)-5-fluoropicolinamide]	5.73 nM	–	84 nM	–
C[C@H]1C[C@@H](c2ccncc2NC(=O)c2nc(-c3c(F)cccc3F)sc2N)C[C@@H](N)[C@]1(C)O [Example 68, 5-amino-N-(4-((1R,3R,4R,5S)-3-amino-4-hydroxy-4,5-dimethylcyclohexyl)pyridin-3-yl)-2-(2,6-difluorophenyl)thiazole-4-carboxamide]	3.02 nM	–	24 nM	–
CCOCc1cc(F)c(-c2nc(C(=O)Nc3cnccc3[C@H]3C[C@@H](N)[C@](C)(O)[C@@H](C)C3)ccc2F)c(F)c1 [Example 72, N-(4-((1R,3R,4R,5S)-3-amino-4-hydroxy-4,5-dimethylcyclohexyl)pyridin-3-yl)-6-(4-(ethoxymethyl)-2,6-difluorophenyl)-5-fluoropicolinamide]	4 nM	–	98 nM	–
C[C@H]1C[C@@H](c2ccncc2NC(=O)c2ccc(F)c(-c3c(F)cc(C4(O)CCOCC4)cc3F)n2)C[C@@H](O)[C@]1(C)O [Example 110, 6-(2,6-difluoro-4-(4-hydroxytetrahydro-2H-pyran-4-yl)phenyl)-N-(4-((1R,3R,4R,5S)-3,4-dihydroxy-4,5-dimethylcyclohexyl)pyridin-3-yl)-5-fluoropicolinamide]	–	–	322 nM	–
CC(C)c1cc(F)c(-c2nc(C(=O)Nc3cnccc3[C@H]3C[C@@H](N)[C@](C)(O)[C@@H](C)C3)ccc2F)c(F)c1 [Example 117, N-(4-((1R,3R,4R,5S)-3-amino-4-hydroxy-4,5-dimethylcyclohexyl)pyridin-3-yl)-6-(2,6-difluoro-4-isopropylphenyl)-5-fluoropicolinamide]	1.39 nM	–	256 nM	0.02 nM
C[C@H]1C[C@@H](c2ccncc2NC(=O)c2ccc(F)c(-c3c(F)cc(C4CCS(=O)(=O)CC4)cc3F)n2)C[C@@H](N)[C@]1(C)O [Example 119, N-(4-((1R,3R,4R,5S)-3-amino-4-hydroxy-4,5-dimethylcyclohexyl)pyridin-3-yl)-6-(4-(1,1-dioxidotetrahydro-2H-thiopyran-4-yl)-2,6-difluorophenyl)-5-fluoropicolinamide]	1.53 nM	–	578 nM	–
C[C@H]1C[C@@H](c2ccncc2NC(=O)c2nc(-c3cccc(OC(F)F)n3)ccc2N)C[C@@H](O)[C@]1(C)O [Example 123, 5-amino-6′-(difluoromethoxy)-N-(4-((1R,3R,4R,5S)-3,4-dihydroxy-4,5-dimethylcyclohexyl)pyridin-3-yl)-2,2′-bipyridine-6-carboxamide]	20200 nM	454 nM	–	35.2 nM
C[C@H]1C[C@@H](c2ccncc2NC(=O)c2nc(-c3cccc(OCC(F)(F)F)n3)ccc2N)C[C@@H](O)[C@]1(C)O [Example 124, 5-amino-N-(4-((1R,3R,4R,5S)-3,4-dihydroxy-4,5-dimethylcyclohexyl)pyridin-3-yl)-6′-(2,2,2-trifluoroethoxy)-2,2′-bipyridine-6-carboxamide]	> 25000 nM	736 nM	–	21.7 nM
